Experimental data from US11780839B2, “Compounds for treating Huntington's disease” (PTC THERAPEUTICS, INC., priority 2018, dated 2023).

System: Endogenous Huntingtin Protein
Assay: Endogenous Huntingtin Protein Assay (ELISA-based Meso Scale Discovery electrochemiluminescence)
Assay type: cell-based
Settings: MSD electrochemiluminescence, Table 1
Outline: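 Huntingtin was captured overnight at 4 °C on plates coated with 1 μg/mL MW1 (polyQ-expanded) or MAB2166 antibody and BSA-blocked. Detection used a rabbit monoclonal and then a SULFO-TAG goat anti-rabbit antibody (0.25 μg/mL, 1 h each, room temperature). Signal was read by electrochemiluminescence.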

| Compound | IC50 [µM] |
| --- | --- |
| Cc1cnn(-c2ccc(-c3cnc(N(C)C4CC(C)(C)NC(C)(C)C4)nn3)c(O)c2)c1 [Cpd 94, 5-(4-methyl-1H-pyrazol-1-yl)-2-{3-[methyl(2,2,6,6-tetramethylpiperidin-4-yl)amino]-1,2,4-triazin-6-yl}phenol] | 0.1 to 0.5 |
| CN(c1ncc(-c2ccc(-c3ccc4nccn4n3)cc2O)nn1)C1CC(C)(C)NC(C)(C)C1 [Cpd 92, 5-(imidazo[1,2-b]pyridazin-6-yl)-2-{3-[methyl(2,2,6,6-tetramethylpiperidin-4-yl)amino]-1,2,4-triazin-6-yl}phenol] | ≤ 0.1 |
| CC(C)(C)NC1CCN(c2ncc(-c3ccc(-c4cn[nH]c4)c(F)c3O)nn2)C1 (stereo not drawn) [Cpd 418, 6-{3-[3-(tert-butylamino)pyrrolidin-1-yl]-1,2,4-triazin-6-yl}-2-fluoro-3-(1H-pyrazol-4-yl)phenol] | ≤ 0.1 |
| CN(C)[C@@H]1CC[C@@H]2CN(c3ncc(-c4ccc(-c5cn[nH]c5)cc4O)nn3)C[C@@H]21 [Cpd 162, 2-{3-[(3aR,4R,6aS)-4-(dimethylamino)hexahydrocyclopenta[c]pyrrol-2(1H)-yl]-1,2,4-triazin-6-yl}-5-(1H-pyrazol-4-yl)phenol] | 0.1 to 0.5 |
| CC1(C)CC(Nc2ncc(-c3ccc(Nc4cccnc4)cc3O)nn2)CC(C)(C)N1 [Cpd 315, 5-[(pyridin-3-yl)amino]2-{3-[(2,2,6,6-tetramethylpiperidin-4-yl)amino]-1,2,4-triazin-6-yl}phenol] | ≤ 0.1 |
| Oc1cc(-c2c[nH]nc2F)ccc1-c1cnc(N2CC[C@H]3NCC[C@H]3C2)nn1 [Cpd 150, 5-(3-fluoro-1H-pyrazol-4-yl)-2-{3-[(3aS,7aR)-octahydro-5H-pyrrolo[3,2-c]pyridin-5-yl]-1,2,4-triazin-6-yl}phenol] | ≤ 0.1 |
| CNC1CCN(c2ncc(-c3ccc(-c4ncns4)cc3O)nn2)C1 (stereo not drawn) [Cpd 269, 2-{3-[3-(methylamino)pyrrolidin-1-yl]-1,2,4-triazin-6-yl}-5-(1,2,4-thiadiazol-5-yl)phenol] | 0.1 to 0.5 |
| COc1cc(-c2ccc(-c3cnc(N(C)C4CC(C)(C)NC(C)(C)C4)nn3)c(O)c2)nn2ccnc12 [Cpd 304, 5-(8-methoxyimidazo[1,2-b]pyridazin-6-yl)-2-{3-[methyl(2,2,6,6-tetramethylpiperidin-4-yl)amino]-1,2,4-triazin-6-yl}phenol] | ≤ 0.1 |
| CC(C)CNC1CCN(c2ncc(-c3ccc(-c4cn[nH]c4)cc3O)nn2)C1 (stereo not drawn) [Cpd 297] | ≤ 0.1 |
| Cc1cn(-c2ccc(-c3cnc(N4CC5(CCN(C)CC5)C4)nn3)c(O)c2)cn1 [Cpd 228, 2-[3-(7-methyl-2,7-diazaspiro[3.5]nonan-2-yl)-1,2,4-triazin-6-yl]-5-(4-methyl-1H-imidazol-1-yl)phenol] | ≤ 0.1 |
| CN(c1ncc(-c2ccc(-c3ccc4nnn(C)c4n3)cc2O)nn1)C1CC(C)(C)NC(C)(C)C1 [Cpd 173] | ≤ 0.1 |
| CN(c1ncc(-c2ccc(-n3ncc([N+](=O)[O-])n3)cc2O)nn1)C1CC(C)(C)NC(C)(C)C1 [Cpd 99, 2-{3-[methyl(2,2,6,6-tetramethylpiperidin-4-yl)amino]-1,2,4-triazin-6-yl}-5-(4-nitro-2H-1,2,3-triazol-2-yl)phenol] | ≤ 0.1 |
| CN(c1ncc(-c2ccc(-c3cn4ccnc4cn3)cc2O)nn1)C1CC(C)(C)NC(C)(C)C1 [Cpd 80, 5-(imidazo[1,2-a]pyrazin-6-yl)-2-{3-[methyl(2,2,6,6-tetramethylpiperidin-4-yl)amino]-1,2,4-triazin-6-yl}phenol] | ≤ 0.1 |
| CNC1CCN(c2ncc(-c3ccc(-c4cnc5c(cnn5C)c4)cc3O)nn2)C1 (stereo not drawn) [Cpd 271, 2-{3-[3-(methylamino)pyrrolidin-1-yl]-1,2,4-triazin-6-yl}-5-(1-methyl-1H-pyrazolo[3,4-b]pyridin-5-yl)phenol] | 0.1 to 0.5 |
| CN1CCC12CCN(c1ncc(-c3ccc(-c4cn[nH]c4)cc3O)nn1)CC2 [Cpd 113, 2-[3-(1-methyl-1,7-diazaspiro[3.5]nonan-7-yl)-1,2,4-triazin-6-yl]-5-(1H-pyrazol-4-yl)phenol] | 0.1 to 0.5 |
| CC(C)NC1CCN(c2ncc(-c3ccc(-c4ccc5c(cnn5C)c4)cc3O)nn2)C1 (stereo not drawn) [Cpd 330, 5-(1-methyl-1H-indazol-5-yl)-2-(3-{3-[(propan-2-yl)amino]pyrrolidin-1-yl}-1,2,4-triazin-6-yl)phenol] | 1 to 3 |
| CN1CCCC2(CCN(c3ncc(-c4ccc(-c5cn[nH]c5)cc4O)nn3)CC2)C1 [Cpd 182, 2-[3-(2-methyl-2,9-diazaspiro[5.5]undecan-9-yl)-1,2,4-triazin-6-yl]-5-(1H-pyrazol-4-yl)phenol] | > 0.5 |
| CN(c1ncc(-c2ccc(-c3ncc4[nH]ncc4n3)cc2O)nn1)C1CC(C)(C)NC(C)(C)C1 [Cpd 195, 2-{3-[methyl(2,2,6,6-tetramethylpiperidin-4-yl)amino]-1,2,4-triazin-6-yl}-5-(1H-pyrazolo[4,3-d]pyrimidin-5-yl)phenol] | ≤ 0.1 |
| CC(C)(C)NC1CCN(c2ncc(-c3ccc(-c4ncccn4)cc3O)nn2)C1 (stereo not drawn) [Cpd 209, 2-{3-[3-(tert-butylamino)pyrrolidin-l-yl]-1,2,4-triazin-6-yl}-5-(pyrimidin-2-yl)phenol] | 1 to 3 |
| NC1C2CN(c3ncc(-c4ccc(-c5cn[nH]c5)cc4O)nn3)CC12 (stereo not drawn) [Cpd 100, 2-[3-(6-amino-3-azabicyclo[3.1.0]hexan-3-yl)-1,2,4-triazin-6-yl]-5-(1H-pyrazol-4-yl)phenol] | ≤ 0.1 |
| Cn1cc(-c2ccc(-c3cnc(N4CCC(NC(C)(C)C)C4)nn3)c(O)c2)cn1 (stereo not drawn) [Cpd 202, 2-{3-[3-(tert-butylamino)pyrrolidin-l-yl]-1,2,4-triazin-6-yl}-5-(1-methyl-1H-pyrazol-4-yl)phenol] | ≤ 0.1 |
| Cc1cn(-c2ccc(-c3cnc(N(C)C4CC(C)(C)NC(C)(C)C4)nn3)c(O)c2)cn1 [Cpd 10, 5-(4-methyl-1H-imidazol-1-yl)-2-{3-[methyl(2,2,6,6-tetramethylpiperidin-4-yl)amino]-1,2,4-triazin-6-yl}phenol] | ≤ 0.1 |
| CN(c1ncc(-c2ccc(-n3cnc(Cl)n3)cc2O)nn1)C1CC(C)(C)NC(C)(C)C1 [Cpd 133, 5-(3-chloro-1H-1,2,4-triazol-1-yl)-2-{3-[methyl(2,2,6,6-tetramethylpiperidin-4-yl)amino]-1,2,4-triazin-6-yl}phenol] | ≤ 0.1 |
| CC(C)NC1CCN(c2ncc(-c3ccc(-c4nnn(C)n4)cc3O)nn2)C1 (stereo not drawn) [Cpd 259, 5-(2-methyl-2H-tetrazol-5-yl)-2-(3-{3-[(propan-2-yl)amino]pyrrolidin-1-yl}-1,2,4-triazin-6-yl)phenol] | 0.1 to 0.5 |
| COc1cc(-c2ccc(-c3cnc(NC4CC(C)(C)NC(C)(C)C4)nn3)c(O)c2)ncn1 [Cpd 254, 5-(6-methoxypyrimidin-4-yl)-2-{3-[(2,2,6,6-tetramethylpiperidin-4-yl)amino]-1,2,4-triazin-6-yl}phenol] | ≤ 0.1 |
| CN(c1cnc(-c2ccc(-c3cnn(C)c3)cc2O)nn1)C1CC(C)(C)NC(C)(C)C1 [Cpd 196, 5-(1-methyl-1H-pyrazol-4-yl)-2-{6-[methyl(2,2,6,6-tetramethylpiperidin-4-yl)amino]-1,2,4-triazin-3-yl}phenol] | ≤ 0.1 |
| CN(c1ncc(-c2ccc(-c3cccs3)cc2O)nn1)C1CC(C)(C)NC(C)(C)C1 [Cpd 53, 2-{3-[methyl(2,2,6,6-tetramethylpiperidin-4-yl)amino]-1,2,4-triazin-6-yl}-5-(thiophen-2-yl)phenol] | 0.1 to 0.5 |
